{"source": "ChEMBL document CHEMBL5608191", "about": "“Structure-based discovery of novel piperidine-biphenyl-DAPY derivatives as non-nucleoside reverse transcriptase inhibitors featuring improved potency, safety, and selectivity: From piperazine-biphenyl-DAPYs to piperidine-biphenyl-DAPYs” (Eur J Med Chem, 2024)", "key": {"[1]": {"molecular_target": "T1, Cytochrome P450 3A4 (Homo sapiens, UniProt P08684)", "T1 sequence (P08684 whole entry)": "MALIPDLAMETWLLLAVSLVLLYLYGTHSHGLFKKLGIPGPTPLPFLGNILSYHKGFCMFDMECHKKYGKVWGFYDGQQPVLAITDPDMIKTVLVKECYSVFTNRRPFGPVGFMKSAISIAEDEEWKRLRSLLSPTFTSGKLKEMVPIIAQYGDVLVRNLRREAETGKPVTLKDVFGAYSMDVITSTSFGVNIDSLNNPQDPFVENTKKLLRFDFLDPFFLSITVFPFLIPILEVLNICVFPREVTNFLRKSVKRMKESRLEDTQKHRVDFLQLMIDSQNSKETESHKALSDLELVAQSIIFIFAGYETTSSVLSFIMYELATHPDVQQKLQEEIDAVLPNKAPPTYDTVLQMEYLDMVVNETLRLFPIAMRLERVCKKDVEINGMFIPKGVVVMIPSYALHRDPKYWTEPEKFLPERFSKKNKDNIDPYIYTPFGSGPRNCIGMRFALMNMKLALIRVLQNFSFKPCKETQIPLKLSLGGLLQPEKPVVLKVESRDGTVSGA", "assay": "Inhibition of CYP3A4 (unknown origin)", "assay_type": "ADME"}, "[2]": {"molecular_target": "Cytochrome P450 2D6 (Homo sapiens, UniProt P10635)", "sequence (P10635 whole entry)": "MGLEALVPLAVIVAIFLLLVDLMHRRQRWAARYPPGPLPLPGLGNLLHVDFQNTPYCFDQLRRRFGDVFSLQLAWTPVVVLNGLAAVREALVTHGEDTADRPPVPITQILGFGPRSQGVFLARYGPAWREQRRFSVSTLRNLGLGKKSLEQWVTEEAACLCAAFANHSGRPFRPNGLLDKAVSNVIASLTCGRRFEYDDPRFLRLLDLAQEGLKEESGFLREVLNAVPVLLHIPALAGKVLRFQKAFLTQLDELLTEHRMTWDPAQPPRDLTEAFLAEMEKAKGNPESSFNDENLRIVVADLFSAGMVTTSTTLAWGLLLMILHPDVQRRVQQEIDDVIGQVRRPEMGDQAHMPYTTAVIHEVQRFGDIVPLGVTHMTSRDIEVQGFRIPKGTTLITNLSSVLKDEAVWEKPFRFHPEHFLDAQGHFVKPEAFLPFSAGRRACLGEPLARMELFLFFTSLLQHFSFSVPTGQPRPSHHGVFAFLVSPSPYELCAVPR", "assay": "Inhibition of CYP2D6 (unknown origin)", "assay_type": "ADME"}, "[3]": {"system": "Human immunodeficiency virus 1", "assay": "Antiviral activity against HIV-1 harboring RT E138K mutant infected in human MT4 cells assessed as protection against virus-induced cytopathic effect incubated for 5 days by MTT assay", "assay_type": "functional, organism-based", "settings": "Human immunodeficiency virus 1, MT4, 120 h"}, "[4]": {"molecular_target": "Cytochrome P450 2C9 (Homo sapiens, UniProt P11712)", "sequence (P11712 whole entry)": "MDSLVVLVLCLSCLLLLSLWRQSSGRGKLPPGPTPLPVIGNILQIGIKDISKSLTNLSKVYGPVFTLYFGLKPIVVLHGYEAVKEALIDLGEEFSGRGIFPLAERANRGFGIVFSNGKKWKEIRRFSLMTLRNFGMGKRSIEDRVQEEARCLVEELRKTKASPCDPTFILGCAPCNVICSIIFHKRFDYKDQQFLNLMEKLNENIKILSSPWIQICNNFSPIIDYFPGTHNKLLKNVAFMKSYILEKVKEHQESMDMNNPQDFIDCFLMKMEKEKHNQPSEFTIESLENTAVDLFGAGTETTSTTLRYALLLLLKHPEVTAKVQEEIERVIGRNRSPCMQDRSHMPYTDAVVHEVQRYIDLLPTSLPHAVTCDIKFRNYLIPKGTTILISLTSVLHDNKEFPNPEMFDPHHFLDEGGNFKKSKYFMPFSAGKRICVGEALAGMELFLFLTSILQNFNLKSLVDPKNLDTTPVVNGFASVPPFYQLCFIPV", "assay": "Inhibition of CYP2C9 (unknown origin)", "assay_type": "ADME"}, "[5]": {"molecular_target": "T1, Cytochrome P450 3A4", "assay": "Inhibition of CYP3A4 (unknown origin) using midazolam as substrate", "assay_type": "ADME"}, "[6]": {"system": "Human immunodeficiency virus 1", "assay": "Antiviral activity against HIV-1 harboring RT Y181C mutant infected in human MT4 cells assessed as protection against virus-induced cytopathic effect incubated for 5 days by MTT assay", "assay_type": "functional, organism-based", "settings": "Human immunodeficiency virus 1, MT4, 120 h"}, "[7]": {"assay": "Acute toxicity in mouse assessed as apparent pathological damage in kidney treated for 14 days by H and E staining based analysis", "settings": "in vivo, 336 h, time 14 day"}, "[8]": {"assay": "Acute toxicity in mouse assessed as drug tolerance at 2 g/kg treated for 14 days", "settings": "in vivo, 2000 mg/kg, 336 h, time 14 day"}, "[9]": {"assay": "Acute toxicity in mouse assessed as apparent pathological damage in lung treated for 14 days by H and E staining based analysis", "assay_type": "tissue-based", "settings": "in vivo, 336 h, time 14 day"}, "[10]": {"assay": "Solubility of compound in phosphate buffer at pH 2 by HPLC analysis", "assay_type": "physicochemical"}, "[11]": {"assay": "Acute toxicity in mouse assessed as apparent pathological damage in brain treated for 14 days by H and E staining based analysis", "assay_type": "tissue-based", "settings": "in vivo, 336 h, time 14 day"}, "[12]": {"assay": "Solubility of compound in phosphate buffer at pH 7 by HPLC analysis", "assay_type": "physicochemical"}, "[13]": {"assay": "Acute toxicity in mouse assessed as apparent pathological damage in liver treated for 14 days by H and E staining based analysis", "assay_type": "tissue-based", "settings": "in vivo, 336 h, time 14 day"}, "[14]": {"assay": "Acute toxicity in mouse assessed as apparent pathological damage in heart treated for 14 days by H and E staining based analysis", "assay_type": "tissue-based", "settings": "in vivo, 336 h, time 14 day"}, "[15]": {"system": "Human immunodeficiency virus 1", "assay": "Antiviral activity against HIV-1 harboring RT L100I mutant infected in human MT4 cells assessed as protection against virus-induced cytopathic effect incubated for 5 days by MTT assay", "assay_type": "functional, organism-based", "settings": "Human immunodeficiency virus 1, MT4, 120 h"}, "[16]": {"molecular_target": "T1, Cytochrome P450 3A4", "assay": "Inhibition of CYP3A4 (unknown origin) using testosterone as substrate", "assay_type": "ADME"}, "[17]": {"molecular_target": "Human immunodeficiency virus type 1 reverse transcriptase (Human immunodeficiency virus 1, UniProt Q72547)", "assay": "Inhibition of recombinant wild-type HIV-1 reverse transcriptase incubated for 40 mins by fluorescence based assay"}, "[18]": {"assay": "Cytotoxicity against human MT4 cells assessed as reduction in cell viability incubated for 5 days by MTT assay", "assay_type": "toxicity, cell-based", "settings": "time 5 day"}, "[19]": {"assay": "Solubility of compound in phosphate buffer at pH 7.4 by HPLC analysis", "assay_type": "physicochemical"}, "[20]": {"molecular_target": "T2, Cytochrome P450 1A2 (Homo sapiens, UniProt P05177)", "T2 sequence (P05177 whole entry)": "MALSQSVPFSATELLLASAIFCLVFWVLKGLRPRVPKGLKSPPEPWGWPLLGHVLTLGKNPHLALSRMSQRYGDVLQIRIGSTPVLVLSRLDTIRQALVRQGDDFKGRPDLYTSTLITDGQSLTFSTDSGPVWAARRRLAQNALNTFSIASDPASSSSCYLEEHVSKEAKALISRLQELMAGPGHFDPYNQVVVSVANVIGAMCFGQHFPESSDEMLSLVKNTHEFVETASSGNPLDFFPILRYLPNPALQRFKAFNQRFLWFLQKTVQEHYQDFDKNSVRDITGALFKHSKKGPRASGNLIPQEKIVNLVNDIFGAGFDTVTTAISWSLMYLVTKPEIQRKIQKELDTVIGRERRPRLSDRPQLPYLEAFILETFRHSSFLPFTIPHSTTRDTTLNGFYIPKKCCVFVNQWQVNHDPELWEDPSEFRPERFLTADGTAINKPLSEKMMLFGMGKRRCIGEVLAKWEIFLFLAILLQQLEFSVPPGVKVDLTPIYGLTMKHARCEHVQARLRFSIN", "assay": "Inhibition of CYP1A2 (unknown origin)", "assay_type": "ADME"}, "[21]": {"molecular_target": "Voltage-gated inwardly rectifying potassium channel KCNH2 (Homo sapiens, UniProt Q12809)", "sequence (Q12809 whole entry)": "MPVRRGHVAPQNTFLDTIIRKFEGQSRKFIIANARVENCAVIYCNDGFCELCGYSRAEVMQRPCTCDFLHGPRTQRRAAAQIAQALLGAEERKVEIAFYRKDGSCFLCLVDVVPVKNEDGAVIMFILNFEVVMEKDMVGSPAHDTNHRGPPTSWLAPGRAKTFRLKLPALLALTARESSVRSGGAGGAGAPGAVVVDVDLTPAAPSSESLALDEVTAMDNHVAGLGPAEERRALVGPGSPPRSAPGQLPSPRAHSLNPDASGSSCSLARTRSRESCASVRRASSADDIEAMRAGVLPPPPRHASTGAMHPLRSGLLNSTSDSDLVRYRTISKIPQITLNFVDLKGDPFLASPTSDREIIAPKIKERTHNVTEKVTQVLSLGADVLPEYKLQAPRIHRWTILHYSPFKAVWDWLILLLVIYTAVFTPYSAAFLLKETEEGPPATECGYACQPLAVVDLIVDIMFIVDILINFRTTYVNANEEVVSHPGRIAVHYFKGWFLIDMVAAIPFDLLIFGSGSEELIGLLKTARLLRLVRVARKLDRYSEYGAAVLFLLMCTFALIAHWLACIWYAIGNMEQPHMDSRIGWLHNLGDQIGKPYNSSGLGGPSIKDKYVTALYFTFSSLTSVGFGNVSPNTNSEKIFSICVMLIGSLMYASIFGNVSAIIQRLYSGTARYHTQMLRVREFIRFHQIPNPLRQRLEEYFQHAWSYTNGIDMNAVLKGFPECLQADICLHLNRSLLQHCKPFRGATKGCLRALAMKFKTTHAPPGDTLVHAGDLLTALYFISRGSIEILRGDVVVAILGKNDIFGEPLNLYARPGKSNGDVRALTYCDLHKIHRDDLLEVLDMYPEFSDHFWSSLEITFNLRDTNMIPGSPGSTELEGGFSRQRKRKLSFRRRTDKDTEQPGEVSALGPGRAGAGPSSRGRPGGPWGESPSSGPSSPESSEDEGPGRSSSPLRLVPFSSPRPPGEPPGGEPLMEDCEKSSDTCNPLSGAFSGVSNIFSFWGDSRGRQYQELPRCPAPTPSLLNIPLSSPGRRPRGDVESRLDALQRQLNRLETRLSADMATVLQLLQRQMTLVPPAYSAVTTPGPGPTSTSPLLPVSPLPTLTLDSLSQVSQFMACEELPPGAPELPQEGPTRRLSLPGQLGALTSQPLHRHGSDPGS", "assay": "Inhibition of hERG expressed in CHO cells", "assay_type": "toxicity, cell-based"}, "[22]": {"molecular_target": "Cytochrome P450 2C19 (Homo sapiens, UniProt P33261)", "sequence (P33261 whole entry)": "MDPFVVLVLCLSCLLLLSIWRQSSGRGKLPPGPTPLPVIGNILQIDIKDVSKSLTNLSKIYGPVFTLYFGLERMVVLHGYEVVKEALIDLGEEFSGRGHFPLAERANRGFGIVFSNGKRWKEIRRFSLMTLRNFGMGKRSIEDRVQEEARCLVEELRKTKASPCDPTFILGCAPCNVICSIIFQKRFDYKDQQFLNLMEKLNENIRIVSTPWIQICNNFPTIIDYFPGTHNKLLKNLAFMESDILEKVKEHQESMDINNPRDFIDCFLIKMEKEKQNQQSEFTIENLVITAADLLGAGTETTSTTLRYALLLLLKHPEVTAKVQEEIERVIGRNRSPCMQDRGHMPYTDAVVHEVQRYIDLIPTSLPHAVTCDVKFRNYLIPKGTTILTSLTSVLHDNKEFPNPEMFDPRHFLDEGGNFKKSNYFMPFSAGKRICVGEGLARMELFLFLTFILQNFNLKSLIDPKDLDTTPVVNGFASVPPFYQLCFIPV", "assay": "Inhibition of CYP2C19 (unknown origin)", "assay_type": "ADME"}, "[23]": {"assay": "Acute toxicity in mouse assessed as animal death treated for 14 days", "settings": "in vivo, 336 h, time 14 day"}, "[24]": {"assay": "Acute toxicity in mouse assessed as apparent pathological damage in spleen treated for 14 days by H and E staining based analysis", "assay_type": "tissue-based", "settings": "in vivo, 336 h, time 14 day"}, "[25]": {"assay": "Solubility of compound in water by HPLC analysis", "assay_type": "physicochemical"}, "[26]": {"assay": "Acute toxicity in mouse assessed as toxic symptoms treated for 14 days", "settings": "in vivo, 336 h, time 14 day"}, "[27]": {"assay": "Acute toxicity in mouse assessed as change in body weight treated for 14 days", "settings": "in vivo, 336 h, time 14 day"}, "[28]": {"assay": "Selectivity index, ratio of CC50 for human MT4 cells to EC50 for wild-type HIV-1 IIIB infected in human MT4 cells", "assay_type": "toxicity, cell-based", "settings": "read-out: Ratio CC50/EC50"}, "[29]": {"system": "Human immunodeficiency virus 1", "assay": "Antiviral activity against HIV-1 harboring RT Y188L mutant infected in human MT4 cells assessed as protection against virus-induced cytopathic effect incubated for 5 days by MTT assay", "assay_type": "functional, organism-based", "settings": "Human immunodeficiency virus 1, MT4, 120 h"}, "[30]": {"system": "Human immunodeficiency virus 1", "assay": "Antiviral activity against HIV-1 harboring RT K103N mutant infected in human MT4 cells assessed as protection against virus-induced cytopathic effect incubated for 5 days by MTT assay", "assay_type": "functional, organism-based", "settings": "Human immunodeficiency virus 1, MT4, 120 h"}, "[31]": {"system": "Human immunodeficiency virus 1", "assay": "Antiviral activity against wild-type HIV-1 IIIB infected in human MT4 cells assessed as protection against virus-induced cytopathic effect incubated for 5 days by MTT assay", "assay_type": "functional, organism-based", "settings": "Human immunodeficiency virus 1, IIIB, MT4, 120 h"}}, "note": "pEC50, pIC50: −log10 of the molar value.", "data": [{"smiles": "C[C@]12CC[C@H]3[C@@H](CCC4=CC(=O)CC[C@@]43C)[C@@H]1CC[C@@H]2O", "note": "[TESTOSTERONE]", "values": [{"measurement": "pIC50", "setting": "[1]", "result": 7.43}]}, {"smiles": "COc1ccc2c(c1)[C@]13CCCC[C@@H]1[C@H](C2)N(C)CC3", "note": "[DEXTROMETHORPHAN]", "values": [{"measurement": "pIC50", "setting": "[2]", "result": 6.62}]}, {"smiles": "CCOC(=O)c1cnc(NC2CCN(Cc3ccc(C(=O)NC)cc3)CC2)nc1Oc1c(C)cc(-c2ccc(C#N)cc2)cc1C", "values": [{"measurement": "pEC50", "setting": "[3]", "result": 7.33}, {"measurement": "pIC50", "setting": "[4]", "result": "< 4.30"}, {"measurement": "pIC50", "setting": "[5]", "result": "< 4.30"}, {"measurement": "pEC50", "setting": "[6]", "result": 7.42}, {"measurement": "Activity", "setting": "[7]", "result": "Non-Toxic"}, {"measurement": "Activity", "setting": "[8]", "result": "Non-Toxic"}, {"measurement": "Activity", "setting": "[9]", "result": "Non-Toxic"}, {"measurement": "solubility", "setting": "[10]", "result": 109, "unit": "µg/mL"}, {"measurement": "Activity", "setting": "[11]", "result": "Non-Toxic"}, {"measurement": "solubility", "setting": "[12]", "result": "< 1", "unit": "µg/mL"}, {"measurement": "Activity", "setting": "[13]", "result": "Non-Toxic"}, {"measurement": "Activity", "setting": "[14]", "result": "Non-Toxic"}, {"measurement": "pEC50", "setting": "[15]", "result": 7.54}, {"measurement": "pIC50", "setting": "[16]", "result": "< 4.30"}, {"measurement": "pIC50", "setting": "[17]", "result": 6.15}, {"measurement": "CC50 at 120 h", "setting": "[18]", "result": "> 202000", "unit": "nM"}, {"measurement": "solubility", "setting": "[19]", "result": "< 1", "unit": "µg/mL"}, {"measurement": "pIC50", "setting": "[20]", "result": "< 4.30"}, {"measurement": "pIC50", "setting": "[21]", "result": 4.59}, {"measurement": "pIC50", "setting": "[22]", "result": "< 4.30"}, {"measurement": "Activity", "setting": "[23]", "result": "Non-Toxic"}, {"measurement": "Activity", "setting": "[24]", "result": "Non-Toxic"}, {"measurement": "pIC50", "setting": "[2]", "result": "< 4.30"}, {"measurement": "solubility", "setting": "[25]", "result": "< 1", "unit": "µg/mL"}, {"measurement": "Activity", "setting": "[26]", "result": "Non-Toxic"}, {"measurement": "Activity", "setting": "[27]", "result": "Non-Toxic"}, {"measurement": "selectivity ratio", "setting": "[28]", "result": "> 33100"}, {"measurement": "pEC50", "setting": "[29]", "result": 7.20}, {"measurement": "pEC50", "setting": "[30]", "result": 8.15}, {"measurement": "pEC50", "setting": "[31]", "result": 8.22}]}]}
